Source: US20120237614A1, “PEPTIDE ABLE TO DISRUPT THE PROTEIN COMPLEX BETWEEN THE HIS273 MUTADED P53 PROTEIN AND THE ONCOSUPPRESSIVE P73 PROTEIN IN TUMOR CELLS AND THERAPEUTIC USES THEREOF” (priority 2009, published 2012)

Assays:
[1] = target: GST-p53 His175 (Homo sapiens, UniProt P04637, R175H); test: Dot immunobinding test with purified GST-p53 fusion proteins; type: binding; settings: 20 μg GST fusion purified proteins
Protocol: (A) Total extracts deriving from SKBR3, (His-175) HT29, (His-273) and H1299 (p53 free) tumour cells have been incubated (1 mg) on SIMP1 and SIMPIKO peptide labelled nitrocellulose membrane and Dot Blot analysed. In (B) the membranes have been incubated with 20 μg of wild type WT GST-p53 purified protein or GST-p53 His-175, GST-p53-His-175, 74-298 or GST alone. In both experiments dots have been detected by labelling the membranes with anti-p53 (DO1) antibody
Nitrocellulose membranes have been cut, washed with water and blotted on the paper filters. The peptides at 250 mM concentration have been transferred on membrane. Labelled membrane has been washed for 10 min. with TBST buffer (10 mM Tris-HCl pH 7.4, 150 mM NaCl, 0.05% (v/v) Tween-20) and then blocked for 45 min with TBST/5% milk. Then the membranes have been incubated for 6 hours at 4° C. in shaker with 1 mg of total protein extract or 20 μg of GST fusion purified proteins. Successively the membranes have been washed with TBST buffer and decorated with anti-p53 antibody (DO1) as a primary antibody. As secondary antibody horse peroxidase conjugated goat antibody has been used. Immunolabelled lanes have been detected using chemiluminescence analysis (Pierce).
The membranes decorated with SIMP peptides also have been incubated with GST-p53 His175, GST p53His74-298, GST WTp53 fusion proteins, GST control.

[2] = test system: HT29 cells; test: In vivo tumorigenicity test (xenograft of peptide transfected HT29 cells); settings: naked mice, s.c. 5×10^5 peptide transfected cells/mouse, 5 weeks
Protocol: In order to assay SIMP1 in vivo antitumor activity nu/nu […] mice were administered subcutaneously with SIMP1, SIMP1KO and SIMP5M transfected HT29 cells (5.0×10^5 cells/mouse). Tumour growth has been monitored over 5 weeks.
Xenograft assays have been carried out by administration to naked mice subcutaneous injections containing 5×10^5 cells/mouse of SIMP1, SIMP1KO and SIMP5M peptide transfected colon and rectum tumour human cell line (nu/nu CD1 Charles River mice). The tumour growth together with animal body weight is monitored for 5 weeks in order to estimate the chronic toxicity
The experiments have been carried out by administration to naked mouse (nu/nu CD1 Charles River mice) subcutaneous injections containing 5×10^5 cells/mouse. The tumour growth has been monitored together with animal body weight for 5 weeks in order to estimate possible not occurred chronic toxic effects (FIG. 5).

[3] = test system: tumour cell lines containing His-175 or His-273 p53 mutation; test: Summary of activity by p53 mutation type; type: cell-based; settings: for activity on p53 mutant categories (His-175, His-273): summary statement; for specificity for p53 mutation type: FIG. 6 summary
Text: SIMP1M: FQQSSTARSATW (SEQ ID NO:16) (MW: 1369, PI: 9.75) peptide is a mutated version of SIMP1 peptide wherein K138 residue has been replaced by Arginine.
FIG. 6 that SIMP peptides and by-products thereof displace protein complexes involving mutated protein p53 and p73.

[4] = target: T1, m-p53His-273/p73 complex (Homo sapiens, UniProt P04637, R273H); test: Coprecipitation (immunoprecipitation) test of the m-p53/p73 complex in MDA-MB-468 cells; type: cell-based; settings: His-273 mutation, peptide 20 μM, anti-p73 immunoprecipitation
T1 construct: Total cellular lysates (1 mg), have been immunoprecipitated with antibodies directed against p73; endogenous in cells; host or cells: MDA-MB-468
Protocol: (§1) (A) MDA-MB-468 (5×10^5) cells have been transfected using a lipofectamine containing mixture, βgal expression vector, which normalizes transfection efficiency, and SIMPI peptide (20 μM). Total cellular lysates (1 mg), have been immunoprecipitated with antibodies directed against p73 and immunoglobulins (IgG). Immunoprecipitates and an aliquot (50 μg) of total lysate after 12% acrylamide gel electrophoretic run have been transferred on nitrocellulose membrane and labelled with antibodies shown in the figure. (B) MDA-MB-468 cells, have been transfected using SIMP1 and SIMP5,6. peptides. Successively, cells have been washed and stimulated with 3 μM Adriamycin. Total obtained lysates (30 μg) have been assayed for the expression of PARP and BAX apoptotic proteins. Lysate has been normalized by assaying γ-tubulin expression. (C-D). Transactivation tests have been carried out by transient transfection of H1299 cells using a mixture containing lipofectamine, SIMP1, SIMP5,6 indicated plasmids (20 μM each) together with pLUC-BAX reporter vector. To each reaction mixture an equal amount of […] expression vector was added, in order to normalize the transfection efficiency.
The cell extracts have been processed in a lysis buffer containing 50 mm Tris HCl pH 8, 100 mM NaCl, 10% glycerol, 1% Triton X-100, 1 mM EDTA, 100 mM NaF, MgCl2, 1 mM PMSF, protease and phosphatase inhibitors. Then extracts have been sonicated and centrifuged at 14.000 rpm for 10 min for the debris removal.
50 μg of solubilised proteins have been separated by electrophoresis on 10 or 15% SDS-polyacrylamide gel. Western blot analysis has been carried out using anti-p53 primary antibodies (DO1 Calbiochem), rabbit anti-PARP, rabbit polyclonal anti-Bax, anti-p21 and anti-tubulin monoclonal antibodies (Calbiochem). […] Immunolabelled lanes have been detected using chemiluminescence analysis (Pierce). […]
In order to evaluate the activity of SIMPI peptide and SIMP1KO and SIMP1M derivatives the ability in disrupting the oncogenic m-p53His-273/p73 complex has been analysed.

[5] = test system: MDA-MB-468 cells; test: Apoptotic tests (PARP and BAX expression, Western blot) after Adriamycin; type: cell-based, human; settings: MDA-MB-468, 3 μM Adriamycin
Protocol: as §1
50 μg of solubilised proteins have been separated by electrophoresis on 10 or 15% SDS-polyacrylamide gel. Western blot analysis has been carried out using anti-p53 primary antibodies (DO1 Calbiochem), rabbit anti-PARP, rabbit polyclonal anti-Bax, anti-p21 and anti-tubulin monoclonal antibodies (Calbiochem). Goat anti-mouse and goat anti-rabbit horse peroxidase conjugated secondary antibodies (Amersham) have been used for the expression analyses. Immunolabelled lanes have been detected using chemiluminescence analysis (Pierce).
To this end cell viability and apoptotic tests (FIG. 1B, FIG. 4 B-C) on MDA-MB468 breast carcinoma have been carried out.

[6] = test system: m-p53 His273 inhibition on p73 transcription activity; test: Transactivation test with pLUC-BAX reporter in transiently transfected H1299 cells; type: cell-based, human; settings: peptides 20 μM each
Protocol: as §1, with “efficiency. […]” for “efficiency.”
To this end, we have analyzed the ability in blocking the His273 p53 induced inhibition on transcription activity. […]

[7] = test system: MDA-MB-468 cells (His-273 p53 mutation); test: Transactivation test (pLUC-BAX, pLUC-p21) in Adriamycin treated MDA-MB-468 cells; type: cell-based, human; settings: MDA-MB-468, 3 μM Adriamycin 24 hours post-transfection, luciferase reporter
Protocol: MDA-MB-468 cells have been transfected using a mixture containing lipofectamine, pLUC-BAX plasmid, β-galactosidase expression vector, SIMP1 and SIMP control peptides. The cells, 24 hours post-transfection, have been treated with 3 μM Adriamycin.
MDA-MB-468 cells have been transfected using a mixture containing lipofectamine, pLUC-BAX plasmid, pLUC-p21, β-galactosidase expression vector, SIMP1 peptides and SIMP1M and SIMP1KO derived mutant thereof. The cells, 24 hours post-transfection, have been treated with 3 μM Adriamicyn and then processed.
SKBR3, HT-29, MDA-MB-468 cell lines have been transfected with Lipofectamine 2000 according to the supplier instructions (InVitrogen).
Cells (1.5×10^5) have been transiently transfected using SIMP peptides, expression plasmids and reporter constructs as internal controls for transfection efficiency. After the transfection, SKBR3, HT-29 and MDA-MB-468 have been incubated with 3 μM ADR over 24 hours. Cells have been washed with cold PBS and re-suspended in lysis buffer (Promega) and incubated for 10 min at room temp. Insoluble material has been centrifuged and luciferase activity has been determined using a commercial kit with a luminometer (Turner).

[8] = test system: MDA-MB468 breast and HT29 colon carcinoma cell lines; test: Cell viability / proliferation assays after peptide transfection; type: cell-based, human; settings: peptide transfected cells
Protocol: (A) In order to verify the SIMPI peptide specificity, independently from the cellular context, we tested SIMP1 peptides in some Adriamicyn treated colon carcinoma HT29 (His-273). cell lines. The cells have been transfected using a mixture containing lipofectamine, pLUC-BAX plasmid, β-galactosidase expression vector, SIMP1 and SIMP5M control peptides. 24 hours post-transfection, have been treated with 3 μM Adriamicyn. (B-C). Viability and inhibition assays have been carried out after transfection using SIMP1 and SIMP5M peptides in HT29 (colon cancer) and MDA-MB-468 (breast cancer) cell lines
Cell viability has been tested using Trypan Blue exclusion assays.
We observed a reduction of cell proliferation in MDA-MB468 breast and HT29 colon carcinoma cell lines.

[9] = test system: SKBR3 tumour lines, containing his-175 mutation; settings: SKBR3, his-175 mutation; cited from earlier work
[10] = test system: SW480 and MDA-MB-468; settings: cell lines containing other types of mutation (SW480, MDA-MB-468); cited from earlier work

Row | Sequence | reaction with GST-p53 fusion proteins (dot blot, anti-p53 DO1) [1] | tumour growth (tumour size) in vivo [2] | activity on p53 mutant categories (His-175, His-273) [3] | specificity for p53 mutation type [3] | sensitivity to chemotherapeutic treatment [9] | change in apoptotic response [10] | further results
1 | FQQSSTAASATW (SEQ ID NO1 wherein K is substituted by A) [SIMP1KO] | no reaction was observed | tumour growth similar to non treated control | displays no activity on both mutant categories |  |  |  | 
2 | FQQSSTARSATW (SEQ ID NO1 wherein k is substituted by R) [SIMP1M] |  | meaningful reduction of the growth (tumour size) | displays the same, although increased, functions | display specificity for His-273 mutation containing tumours |  |  | disruption of m-p53 His-273/p73 protein complex (p73 bound m-p53 amount) [4]: disrupt selectively m-p53/p73 complex; apoptotic response [5]: increase the apoptotic response to chemotherapeutic agents; restoration of p73 transcription activity inhibited by m-p53 His273 [6]: modify mutated p53/p73 protein complex restoring p73 oncosuppressive functions; Adriamycin chemosensitivity / p73 transcription response [7]: increase Adriamycin chemosensitivty; cell proliferation in vitro [8]: reduce the cell proliferation in vitro; activity on tumour cell lines containing different mutation types ([3]; mutations other than His-273): has no activity on tumour cell lines containing different mutation types
3 | GQRDFNEGQSAPA (p73 SIMP (aa 200-211) wherein Q has been inserted between G (aa200) and R (aa201)) [SIMP6] |  |  |  |  | more sensitive to chemotherapeutic treatment | do not induce changes in the apoptotic response | 
4 | VVKRCPNHE (p73 SIMP (aa 190-198)) [SIMP5] |  |  |  |  | more sensitive to chemotherapeutic treatment | do not induce changes in the apoptotic response | 
5 | VVKRCPNHELGRD (p73 SIMP (aa 190-202)) [SIMP5M, control peptide, reference compound] | specifically reacts against his175 m-p53 | tumour growth similar to non treated control |  | specific for His-175 mutation containing tumours |  |  | 
